Reference: patent US20150175681A1 (priority 2010, published 2015)

Columns and labels:
Format in all cases: in vivo
[1] = tested on: C. difficile (ATCC 43596, strain 545)
[2] = tested on: C. difficile (ATCC 43596 strain); settings: Example 5B
[3] = tested on: C. difficile (ATCC 43596); settings: Example 5C
[4] = Example 5E, vancomycin 20 mg/kg
[5] = Example 5E, vancomycin 20 mg/kg BID × 5 days

Structure (SMILES): CN[C@H](CC(C)C)C(=O)N[C@H]1C(=O)N[C@@H](CC(N)=O)C(=O)N[C@H]2C(=O)N[C@H]3C(=O)N[C@H](C(=O)N[C@H](C(=O)O)c4cc(O)cc(O)c4-c4cc3ccc4O)[C@H](O)c3ccc(c(Cl)c3)Oc3cc2cc(c3O[C@@H]2O[C@H](CO)[C@@H](O)[C@H](O)[C@H]2O[C@H]2C[C@](C)(N)[C@H](O)[C@H](C)O2)Oc2ccc(cc2Cl)[C@H]1O [Vancomycin]
- mean body weights over the study ([1]; Example 5E, to day 39): decreased during the first week post-infection and then rebounded
- Day 40 Survival [1, 4]: 0%
- Median Survival [1, 4]: 20 days
- % mortality [1, 5]: 100%
- number of hamster deaths, day of study 11 to 14 [1, 5]: 1
- number of hamster deaths, day of study 18 to 20 [1, 5]: 5
- number of hamster deaths, day of study 22 [1, 5]: 2
- cecal C. difficile, mean CFU ([1]; in vivo): 6.01±0.93 log10
- % mortality ([2]; 37 days, vancomycin 20 mg/kg PO BID × 5 days, goat polyclonal Abs 1 mL/hamster, PA-38 + PA-41 50, 50 mg/kg, PA-39 + PA-41 50, 40 mg/kg IP Q2d × 4): 88%
- number of hamster deaths, day of study 15 ([2]; doses as Table 2, 8 animals): 1
- number of hamster deaths, day of study 18 ([2]; doses as Table 2, 8 animals): 5
- number of hamster deaths, day of study 19 ([2]; doses as Table 2, 8 animals): 1
- mean body weights ([2]; first week after infection): declined significantly during the first week after infection
- hamsters found dead between Days 15 and 19 ([2]; vancomycin 20 mg/kg BID Days 1-5): seven of eight
- % mortality ([3]; 40 days, vancomycin 20 mg/kg PO BID × 5 days, mAbs 50 mg/kg (combination 50, 50) IP Q2d × 4, 7 hamsters): 100%
- number of hamster deaths, day of study 12 ([3]; doses as Table 4): 1
- number of hamster deaths, day of study 14 ([3]; doses as Table 4): 2
- number of hamster deaths, day of study 15 ([3]; doses as Table 4): 1
- number of hamster deaths, day of study 18 ([3]; doses as Table 4): 1
- number of hamster deaths, day of study 19 ([3]; doses as Table 4): 2
